{
  "source": "patent EP2557075A1",
  "about": "“New triazene compounds for treating cancer” (Trin Therapeutics GmbH, priority 2011, dated 2013)",
  "key": {"[1]": {"system": "HepG2", "assay": "Intracellular metabolisation of triazenes in HepG2 cell culture (Experiment 1)", "type": "in vitro ADME", "details": "HepG2, 100nmol/ml, 100% FCS, binnen 6 Stunden", "description": "Es wird gezeigt, dass Verbindungen nach Beispiel 1 schneller und in größerer Menge intrazellulär metabolisiert werden als die als Vergleichssubstanzen eingesetzten Verbindungen nach Präparat 2 und 5 (entsprechend Verbindungen nach Präparat 2 und Beispiel 2a jeweils der WO 2009/004060).\nDie getesteten Verbindungen wurden wie folgt gelöst: • Erfindungsgemäße Verbindung: • Beispiel 1 : in 20 mg/ml DMSO\n(§1) Vergleichssubstanzen: • Präparat 2: in 50mg/ml DMSO, • Präparat 5: in 50mg/ml Wasser.\nAlle drei Substanzen wurden äquimolar in einer Dosis von 100nmol/ml auf 1 x 10^7 HepG2 bzw. MCF-7-Zellen gegeben. Als Zellkulturmedium wurde 100% fötales Kälberserum (FCS) verwendet. Für den Versuch wurde der Gehalt aus Ausgangsprodukt und Metaboliten im Zellüberstand nach 1, 3 und 6 (HepG2) bzw. 1,3 und 20 Stunden (MCF-7) Inkubationszeit ermittelt. Alle drei Substanzen zeigten in Kontrollversuchen mit 100% FCS nach 40 Stunden metabolische Stabilität."}, "[2]": {"system": "HepG2", "assay": "Intracellular uptake of triazenes in HepG2 cells (Experiment 2)", "type": "in vitro ADME", "details": "HepG2, 50.000ng/ml, 10.000ng/ml O6-Benzylguanin, 2, 4 und 20 Stunden", "description": "(§2) Es wird gezeigt, dass Verbindungen nach Beispiel 1 schneller und in größerer Menge intrazellulär aufgenommen werden als die als Vergleichssubstanzen eingesetzten Verbindungen nach Präparat 2 und 5 (entsprechend Verbindungen nach Präparat 2 und Beispiel 2a jeweils der WO 2009/004060).\n(§3) Die getesteten Verbindungen wurden wie folgt gelöst: • Erfindungsgemäße Verbindung: • Beispiel 1: in 20 mg/ml DMSO\nas §1\n(§4) Alle drei Substanzen wurden in einer Dosis von 50.000ng/ml auf 2 x 10^7 HepG2 und HCT-8 sowie 2 x 10^6-MDA-MB231 Zellen gegeben. Als Zellkulturmedium wurde 100% (MDA-MB231: 50%) fötales Kälberserum (FCS) verwendet. Zudem wurde bei den Versuchen mit HepG2 und HCT-8 noch 10.000ng/ml O6-Benzylguanin zugesetzt. Für den Versuch wurde die intrazelluläre Konzentration von Ausgangsprodukt und Metaboliten nach 2, 4 und 20 (HepG2), 2 und 3,5 und 20 Stunden (MDA-MB231) und 2,4, 24 und 48 Stunden (HCT-8) Inkubationszeit ermittelt. Alle drei Substanzen zeigten in Kontrollversuchen mit 100% FCS nach 40 Stunden metabolische Stabilität."}, "[3]": {"system": "MDA-MB231 Zellen", "assay": "Intracellular uptake of triazenes in MDA-MB231 cells (Experiment 2)", "type": "in vitro ADME", "details": "MDA-MB231, 50.000ng/ml, 50% FCS, 2, 3,5 und 20 Stunden", "description": "as §2, §3, §1, §4"}, "[4]": {"system": "MCF-7, MB-231, HepG2, HCT8, DU-145", "assay": "IC50 of triazenes in various tumour cell lines (Experiment 3)", "type": "cell-based", "excerpt": "Die nachfolgenden Experimente 3 und 4 zeigen, dass die erfindungsgemäßen neuen Triazenverbindungen eine vergleichbare Anti-Tumorwirkung (IC50) in zahlreichen Krebszelllinien wie der HepG2 (Leber), HCT8 (Darm), DU-145 (Prostata), MCF-7 und MDA-MB-231 (Brust) und MiaPaca-2 (Bauchspeicheldrüse) bei bis zu 100fach niedrigeren Konzentrationen zeigen als vergleichbare Triazene wie DTIC, TMZ oder Substanzen wie sie in der WO 2009/004060 und der DE 1 7931 1 5 beschrieben sind.\n(§5) Verschiedene Triazene wie erfindungsgemäße Verbindungen nach Beispiel 1, DTIC, TMZ sowie Verbindungen nach Präparat 2 und 5 (entsprechend Verbindungen nach Präparat 2 und Beispiel 2a jeweils der WO 2009/004060) sowie Verbindungen nach Beispiel 33 der DE1793115 wurden in DMSO bzw. Wasser gelöst."}, "[5]": {"system": "drei Pankreaskrebszelllinien", "assay": "IC50 of triazenes in three pancreatic cancer cell lines (Experiment 4)", "type": "cell-based", "excerpt": "as §5, with “nach Beispiel 2 und 33 der” for “nach Beispiel 33 der”"}, "[6]": {"system": "periphere Blutzellen (PBC)", "assay": "Cell damage (apoptosis rate, CaspACE assay, flow cytometry) in peripheral blood cells (Experiment 5)", "type": "cell-based", "excerpt": "Um die therapeutische Breite der neuen Substanzen abschätzen zu können, wurden periphere Blutzellen (PBC) und hämatologische Zellen (Nalm-6; CEM und U-937) für 24 Stunden mit unterschiedlichen Dosen verschiedener Triazenverbindungen bzw. Doxorubicin als positive Kontrolle für die hämatologischen Zelllinien inkubiert. Das Maß der Zellschädigung (Apoptoserate) wurde mittels CaspACE™ Assay (am Durchflusszytometer) bestimmt.\nVerschiedene Triazene wie erfindungsgemäße Verbindungen nach Beispiel 1, TMZ sowie Verbindungen nach Präparat 2 und 5 (entsprechend Verbindungen nach Präparat 2 und Beispiel 2a jeweils der WO 2009/004060) wurden in DMSO bzw. Wasser entsprechend den Angaben in Abbildung 22 gelöst.\nPeriphäre Blutzellen (PBC) werden jeweils mit der IC50 für die MDA-MB231 gemäß Experiment 3 der entsprechenden Substanzen inkubiert. Es wird gezeigt, dass die erfindungsgemäße Verbindung nach Beispiel 1 nicht mehr DNA-Schädigungen in den PBC erzeugt als eine Negativkontrolle, […]"}, "[7]": {"system": "CEM", "assay": "Growth inhibition (IC50) in leukaemic CEM cells (Experiment 7)", "type": "cell-based", "details": "Homo sapiens, CCRF-CEM, 24 Stunden", "excerpt": "Hämatologische Zellen (CEM, HL-60) wurden für 24 Stunden mit unterschiedlichen Dosen verschiedener Triazenverbindungen inkubiert, um die IC50 zu bestimmen."}, "[8]": {"system": "MDA-MB231", "assay": "Cell cycle analysis by flow cytometry in MDA-MB231 (Experiment 9)", "type": "cell-based", "details": "MDA-MB231, incubated with IC50, nach 10 bzw. 24 Stunden", "excerpt": "(§6) Die Progression durch den Zellzyklus ist charakterisiert durch die mitotische Teilung (M-Phase) und der sich anschließenden Interphase, Die Interphase gliedert sich wiederum in die G1 -, S- und G2-Phase, In der G1-Phase beginnt die Zelle zu wachsen und es liegt ein vollständiger Chromosomensatz vor. In der S-Phase erfolgt die Replikation der DNA, wodurch an ihrem Ende der zweifache Chromosomensatz vorliegt. In der G2-Phase bereitet sich die Zelle auf die mitotische Teilung vor, an dessen Ende wieder der einfache Chromosomensatz vorhanden ist. Zusätzlich zu diesen Phasen kann eine sog. sub-G1-Phase vorliegen. Diese ist charakterisiert durch fragmentierte, apoptotische Zellen, die durch degradierte DNA charakterisiert ist. In welchem Stadium sich die Zelle befindet bzw. arretiert sein kann, lässt sich mittels Durchflusszytometrie bestimmen (Brockhoff et al. 2007; Lenz et al. 2007).\n(§7) Zellkulturen von MDA-MB231 bzw. HL-60 wurden mit der IC50 (MDA-MB231) bzw. IC90 (HL-60) der beiden Test-Substanzen für bis zu 72 Stunden inkubiert und auf die Zellzyklusentwicklung hin untersucht."}, "[9]": {"system": "HL-60", "assay": "Cell cycle analysis by flow cytometry in HL-60 (Experiment 9)", "type": "cell-based", "excerpt": "as §6, §7"}},
  "note": "Entries after “also recorded” stand apart in the source; their conditions may differ. Where two headings read alike, the source gives them in different places.",
  "data": [
    {"smiles": "CN(C)N=Nc1ccc(C(=O)c2ccc(O)cc2)cc1", "note": "[Beispiel 1]", "values": [
      {"measurement": "Ausgangssubstanz metabolisiert", "setting": "[1]", "result": 28, "unit": "%"},
      {"measurement": "intrazelluläre Konzentration vs. Vergleichssubstanzen", "setting": "[2]", "result": "deutlich schneller und in höheren Konzentrationen intrazellulär nachweisbar"},
      {"measurement": "intrazelluläre Konzentration vs. Vergleichssubstanzen", "setting": "[3]", "result": "deutlich schneller und in höheren Konzentrationen intrazellulär nachweisbar"},
      {"measurement": "antitumorale Aktivität (IC50) compared with other triazenes", "setting": "[4]", "result": "deutlich wirksamer; also recorded: höhere antitumorale Aktivität"},
      {"measurement": "antitumorale Aktivität (IC50) compared with Vergleichssubstanzen", "setting": "[5]", "result": "deutliche Überlegenheit"},
      {"measurement": "Zellschädigung (Apoptoserate) vs. Negativkontrolle", "setting": "[6]; PBC, 24 stündige Inkubation", "result": "nicht mehr geschädigt als durch eine Negativkontrolle"},
      {"measurement": "% Zellen in Apoptose", "setting": "[6]; Versuch 1 Lymphozyten, 24 Stunden incubation at the IC50 for MDA-MB231", "result": "8,120%"},
      {"measurement": "IC50", "setting": "[7]; mean of Exp. 1-4, read-out: IC50 Mittelwert", "result": 22.8, "unit": "µM"},
      {"measurement": "IC50", "setting": "[7]; read-out: IC50 Exp. 1", "result": 23.4, "unit": "µM"},
      {"measurement": "IC50", "setting": "[7]; read-out: IC50 Exp. 2", "result": 29.7, "unit": "µM"},
      {"measurement": "IC50", "setting": "[7]; read-out: IC50 Exp. 3", "result": 23.8, "unit": "µM"},
      {"measurement": "IC50", "setting": "[7]; read-out: IC50 Exp. 4", "result": 14.1, "unit": "µM"},
      {"measurement": "Zellzyklus", "setting": "[8]", "result": "ausgeprägten G2 Arrest nach 10 bzw. 24 Stunden und massivem Zelltod (SubG1)"},
      {"measurement": "Zellen in der G1 Phase", "setting": "[9]; HL-60, IC90, nach 24 Stunden", "result": "< 2", "unit": "%"},
      {"measurement": "eingesetzte Zellen tot", "setting": "[9]; HL-60, IC90, nach 24 Stunden", "result": "~40", "unit": "%"},
      {"measurement": "Zellzyklus", "setting": "[9]; HL-60, incubated with IC90, nach 12 bzw. 24 Stunden", "result": "ausgeprägten G2 Arrest"}
    ]}
  ]
}
